This is an account of results in US20180104332A1, “INSULIN-LIKE GROWTH FACTOR INHIBITOR AND CHEMOTHERAPEUTIC AGENT FOR USE IN CANCER THERAPY” (The University of Liverpool, priority 2015, published 2018).

Assay [1] relates to KPC-derived orthotopic pancreatic tumors. The assay is described as follows: Syngeneic orthotopic pancreatic cancer model, gemcitabine and IGF blocking antibody BI 836845. Particulars: for effect on tumor growth (tumor weights): i.p. twice a week for two weeks, gemcitabine 100 mg/Kg, BI 836845 100 mg/Kg, vs control IgG, FIG. 47b. The format is in vivo, mouse. Here is the method: FIG. 47 illustrates a combination with gemcitabine with IGF blockade inhibites tumor growth in the syngeneic orthotopic pancreatic cancer model: (a) KPC^luc/zsGreen(zsGreen)-derived pancreatic tumor cells were orthotopically implanted into the pancreas of syngeneic recipient mice, and mice were treated, starting at day 7 after tumor implantation, twice a week i.p., with either control IgG antibody, gemcitabine (100 mg/Kg), IGF blocking antibody BI 836845 (100 mg/Kg) or a combination of gemcitabine with IGF blocking antibody. (b) Representative images of tumors and tumor weights are shown (n=6 mice per group). (c) Pancreatic tumors were digested and percentage of intra- tumoral F4/80+ macrophages, Ly6C+/Ly6G− inflammatory monoctyes, Gr1+/CD11b+ neutrophils and myeloid derived suppressor cells (MDSCs) and CD8+ cytotoxic T cells (CTCs), among CD45+ immune cells, were quantified by flow cytometry (n=3). (d) Percentage of intra-tumoral CD206− M1-like macrophages and CD206+M2-like macrophages, among F4/80+ macrophages, were quantified by flow cytometry (n=3). […] (f) Quantification of cleaved caspase-3 positive apoptotic cells in PDA tumors treated with IgG (control), gemcitabine, IGF blocking antibody BI 836845 or gemcitabine+BI 836845 (n=6 fields counted).
All animal experiments were performed in accordance with current UK legislation under an approved project licence (reference number: 403725). […] Tumor tissues were analyzed by immunohistochemical and immunofluorescent staining for phospho-lnsulin/IGFR expression, EpCAM expression, macrophage infiltration, fibroblast activation and apoptosis using the following antibodies: phospho-insulin/IGF receptor antibody (R&D), EpCAM (BD Pharmingen), CD68 antibody (DAKO), CD206 (abcam), αSMA (abcam) and cleaved caspase 3 (Cell signaling). Expression of IGF-1, IGF-2, Arginase, IL-10, IFNγ and IL-12 in intra-tumoral isolated macrophages were determined by qPCR. […]

The next assay concerns pancreatic cancer. Particulars: patients diagnosed with pancreatic cancer; cited from earlier work.
The subject of another assay is Insulin/IGF receptor. The assay can be described thus: Immunoblotting of Insulin/IGF receptor signalling in cancer cells. In kind it is cell-based, human, mouse. The note with it: Suit-2, KPC-derived and Py230 cells, 3 hours; FIG. 27. Here is the method: FIG. 27 illustrates Immunoblot analysis of phospho-lnsulin/IGF receptor, phospho-Insulin receptor, Insulin receptor, phospho- IGF receptor 1, IGFR1 and tubulin, in human pancreatic cancer Suit-2 cells, murine primary KPC pancreatic cancer and
Py230 breast cancer derived cells, serum starved, exposed to MCM or exposed to recombinant IGF for 3 hours.
FIG. 28 illustrates that blockade of IGF impairs macrophage-mediated activation of Insulin/IGF receptor and downstream signalling molecules IRS1, IRS2 and AKT in cancer cells by Immunoblotting analysis of Suit-2 cells untreated or treated with MCM or MCM+IGF blocking antibody for 3 hours.
Cells were serum starved or treated with macrophage conditioned media for 30 min, 2 h or 3 h, harvested and lysed in RIPA buffer (150 mM NaCl, 10 mM Tris-HCl pH 7.2, 0.1% SDS, 1% Triton X-100, 5 mM EDTA) supplemented with a complete protease inhibitor mixture (SIGMA), a phosphatase inhibitor cocktail (Invitrogen), 1 mM PMSF and 0.2 mM Na3VO4. Cell lysates (300 μg) were analyzed with the Human Phospho-RTK Array Kit (R&D Systems). Protein samples were resuspended in 4xLaemmli sample buffer, and immunoblotting was performed on nitrocellulose membranes blocked in 5% BSA or milk (depending on the antibody) in Tris-buffered saline Tween-20 (TBST). […]

Assay [2] deals with Suit-2 and KPC-derived pancreatic cancer cells. The assay is described as follows: Cell death by flow cytometry (annexinV/PI) under chemotherapy with MCM, IGF blocking antibody or recombinant IGF. In kind it is cell-based. Particulars: recombinant IGF 100 ng/ml, 24 hours, FIGS. 30-32. Here is the method: FIG. 29 illustrates quantification of cell death in Suit-2 cells treated with gemcitabine, MCM and IGF blocking antibody for 24 hours. Error bars represent s.d. (n=3); **two tailed p value≤0.01, *two tailed p value≤0.05 using a student's t-test.
FIG. 30 illustrates primary mouse KPC-derived pancreatic cancer cells were untreated or treated with gemcitabine, MCM, IGF blocking antibody or recombinant IGF for 24 hours and percentage of cell death was quantified by flow cytometry. Error bars represent s.d. (n=3); **two tailed p value≤0.01 using a student's t-test.
FIG. 32 illustrates KPC-derived cells which were cultured in the presence or absence of MCM or recombinant IGF and treated with 100 or 1000 nM nab-paclitaxel for 24 hours. Percentage of cell death was quantified by flow cytometry. Error bars represent s.d. (n=3); *two tailed p value≤0.05 using a student's t-test.
Suit-2 and KPC cells were cultured in serum free or DMEM with 2% FBS respectively, pretreated for 3 h with human or mouse macrophage conditioned media respectively, and IGF-1 IgG blocking antibody (abcam 9572) at 10 μg/ml or IgG antibody as control, followed by Gemcitabine at 200 nM. Cells were harvested after 24 hours, and subjected to flow cytometry. […] Apoptosis was evaluated by flow cytometry (FACS Calibur, Becton Dickinson). […]

Assay [3] deals with Suit-2 and KPC derived pancreatic cancer cells. The assay can be described thus: Cell death and cell cycle analysis of cancer cells treated with the agents alone. In kind it is cell-based, human, mouse. The note with it: no chemotherapy; antibody 10 μg/ml, recombinant IGF 100 ng/ml; FIGS. 52 and 53. Here is the method:
FIG. 52 illustrates quantification of cell death in Suit-2 cells exposed to 200 nM gemcitabine, MCM and/or IGF blocking antibody (10 μg/ml). Error bars represent s.d. (n=3); **two tailed p value≤0.01 using a student's t-test.
FIG. 53 illustrates cell cycle analysis of primary mouse KPC derived pancreatic cancer cells exposed to MCM, IGF blocking antibody ([…]) or recombinant IGF (100 ng/ml).
KPC derived pancreatic cancer cells were treated with isogenic mouse MDFs, IGF1/2 blocking antibody (abcam 9572) at 10 μg/ml or recombinant IGF (Peprotech 100-11) at 100 ng/ml. Cells were harvested, fixed with methanol, treated for 45 min with 10 μg/ml of RNase, resuspended in PBS containing 10 μg/ml of propidium iodide and subjected to flow cytometry.

For assay [4], the system named is MDA-MB-231 breast cancer cells. The assay can be described thus: Cell death by flow cytometry under nab-paclitaxel with MCM or recombinant IGF. In kind it is cell-based, human. The note with it: recombinant IGF 100 ng/ml; 500 nM nab-paclitaxel, 48 hours; FIG. 33. How it is done: FIG. 33 illustrates human breast MDA-MB-231 cancer cells cultured in the presence or absence of MCM or recombinant IGF and treated with 500 nM nab-paclitaxel for 48 hours. Percentage of cell death was quantified by flow cytometry. Error bars represent s.d. (n=3); *two tailed p value≤0.05, **two tailed p value≤0.01 using a student's t-test.
MDA-MB-231 cells were pretreated for 3 hours with human macrophage derived factors (MDF) or recombinant IGF (100 ng/ml) followed by 500 nM of nab-paclitaxel.

As for `Nc1ccn([C@@H]2O[C@H](CO)[C@@H](O)C2(F)F)c(=O)n1` [gemcitabine], the “effect on tumor growth (tumor weights)” value in assay [1] is “no effect”. In addition, the “patients treated with gemcitabine who die within 5 years of commencing treatment” value with pancreatic cancer is 95%.
Consider “recombinant IGF: recombinant IGF (Peprotech 100-11) used at 100 ng/ml”, for which, in the assay with Insulin/IGF receptor, the “Insulin/IGFR signaling in pancreatic and breast cancer cells” value was “activates Insulin/IGFR signaling”. In addition, the “resistance of pancreatic cancer cells to gemcitabine and nab-paclitaxel” value in assay [2] was “sufficient to mediate resistance”. In assay [3], the “survival or proliferation of cancer cells, agent alone” value is “did not alter the survival or proliferation”. Moreover, the “resistance of breast cancer cells to nab-paclitaxel” value in assay [4] is listed as “sufficient to mediate resistance”.

B1: BI 836845: IGF blocking antibody, in phase 1 clinical trials for various solid cancers (antibody, chains of the INN, looked up, V domains shown)
VH: QVELVESGGGLVQPGGSLRLSCAASGFTFTSYWMSWVRQAPGKGLELVSSITSYGSFTYYADSVKGRFTISRDNSKNTLYLQMNSLRAEDTAVYYCARNMYTHFDSWGQGTLVTVSS
VL: DIVLTQPPSVSGAPGQRVTISCSGSSSNIGSNSVSWYQQLPGTAPKLLIYDNSKRPSGVPDRFSGSKSGTSASLAITGLQSEDEADYYCQSRDTYGYYWVFGGGTKLTVL
For B1, the “effect on tumor growth (tumor weights)” value in assay [1] was “modest effect”. Moreover, the “phospho-Insulin/IGFR expression in tumors” value in assay [1] (immunohistochemical analysis, FIG. 47e) is “decreased”.
